From patent publication EP4696691A1, “TRICYCLIC COMPOUND, AND PREPARATION METHOD THEREFOR AND USE THEREOF” (Shanghai Huilun Pharmaceutical Co., Ltd., priority 2023, dated 2024) come the findings set out here.

A short description of series [1]: Pharmacokinetic behavior in mice (plasma concentration by LC-MS/MS). It is filed as in vivo. The following applies: male ICR mice. On the procedure: Three healthy ICR mice (SPF grade, from Beijing Vital River Laboratory Animal Technology Co., Ltd.), male, weighing 18-25 g, were intravenously injected with a compound (1 mg/kg) at a volume of 5 mL/kg. The compound was prepared using 5% DMSO+10% Solutol+85% Saline (w/v), and the animals were not fasted before the experiment.
Three healthy ICR mice (SPF grade, from Beijing Vital River Laboratory Animal Technology Co., Ltd.), male, weighing 18-25 g, were intragastrically administered a compound (5 mg/kg) at a volume of 10 mL/kg. The compound was prepared using 5% DMSO+10% Solutol+85% Saline (w/v), and the animals were not fasted before the experiment.
Blood samples (about 0.05 mL each) were collected from the cheeks at 5 min, 15 min, 30 min, 1 h, 2 h, 4 h, 6 h, 8 h, and 24 h after intravenous administration, and at 5 min, 15 min, 30 min, 1 h, 2 h, 4 h, 6 h, 8 h, and 24 h after intragastrical administration, and anticoagulated with heparin sodium. Following collection, the blood samples were placed on ice and the plasma was centrifuged within 1 h (centrifugation conditions: 6,000 g, 3 min, 2 °C to 8°C). The concentration of the compounds in the plasma was determined by liquid chromatography tandem mass spectrometry. The plasma samples were stored in a -80°C freezer before analysis. With plasma concentration data at different time points, pharmacokinetic parameters were calculated by Phoenix WinNonlin8.2.0, and the results are shown in Table 4: Table 4

Series [2] concerns the target T1, IRAK4-HiBiT fusion protein (Homo sapiens, UniProt Q9NWZ3).
T1 construct: K562 from ATCC
T1 sequence (Q9NWZ3 1-460): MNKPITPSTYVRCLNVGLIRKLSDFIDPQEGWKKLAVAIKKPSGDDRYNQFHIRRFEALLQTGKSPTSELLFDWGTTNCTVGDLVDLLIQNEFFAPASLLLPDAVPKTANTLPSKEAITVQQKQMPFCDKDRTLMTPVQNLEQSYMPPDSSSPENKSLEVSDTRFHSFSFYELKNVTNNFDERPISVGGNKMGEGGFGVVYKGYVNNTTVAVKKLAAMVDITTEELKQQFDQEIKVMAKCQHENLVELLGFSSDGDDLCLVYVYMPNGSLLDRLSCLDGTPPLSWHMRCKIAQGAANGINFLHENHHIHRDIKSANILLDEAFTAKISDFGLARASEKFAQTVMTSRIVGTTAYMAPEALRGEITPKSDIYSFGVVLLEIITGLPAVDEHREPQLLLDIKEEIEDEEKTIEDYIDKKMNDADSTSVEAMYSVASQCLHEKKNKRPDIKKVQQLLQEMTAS
Description: Detection of HiBiT-IRAK4 proteolysis levels in K562 IRAK4-HiBiT cells (Nano-Glo HiBiT Lytic assay). It is filed as cell-based. On the procedure: Test Example 1 Detection of HiBiT-IRAK4 proteolysis levels in K562 IRAK4-HiBiT cells co-incubated with compounds of the present application • Reagents, devices, and consumables in experiments: • Nano-Glo Lytic Detection Assay, purchased from Promega; • EnVision, purchased from PerkinElmer; • Name of cell line: K562 IRAK4-HiBiT stable transformation cell strain (capable of stably expressing IRAK4-HiBiT fusion protein), constructed by Shanghai Bioduro Biologics Co., Ltd., where a K562 cell strain was purchased from ATCC. The culture medium is IMDM+10% FBS+1% P/S (volume percentage, where FBS is fetal bovine serum and P/S is Penicillin-Streptomycin, a 1:1 mixture of penicillin and streptomycin antibiotic solution (10,000 units/mL)).
Cell culture: K562 IRAK4-HiBiT cells were incubated at 37°C, and passaged every 2-3 d, with a seeding density of 200,000 cells/mL.
IRAK4-HiBiT proteolysis experiment: • Step 1: Cell seeding and treatment of compound • 1. A 10 mM compound mother liquor was prepared using DMSO, and a compound solution with a working concentration of 1,000 times (the highest working concentration is 10 µM, diluted 3.162 times, with a total of 10 concentration gradients) was prepared using Bravo automatic liquid processing platform. • 2. 40 nL of a compound working solution was transferred to a 384 well plate, and an equal volume of DMSO was added to positive control wells. • 3. 20 µL of a culture solution was added per well and shaken for 10 min. • 4.20 µL of a K562 IRAK4-HiBiT cell suspension was added per well (6,000 cells/well), and an equal volume of culture medium was added to negative control wells. • 5. The well plate was rotated at 1,000 rpm for 1 min. • 6. The cells were incubated in a 5% CO2 incubator at 37°C for 2 h or 6 h. • Step 2: HiBiT Lytic experiment • 1. The well plate was placed at room temperature to equilibrate for 30 min. • 2. 20 µL of Nano-Glo HiBiT Lytic reagent (trade name: Nano-Glo® HiBiT Lytic Detection Reagent) and the well plate was kept in the dark. • 3. The well plate was placed on an orbital shaker at 300 rpm for 5 min. • 4. The cells were incubated at room temperature for 10 min. • 5. The luminous value was read by Envision. • 6. Data was calculated and processed. Degradation degree%=(negative control - experimental well)/(negative control - positive control) * 100%. Using XL-fit software, a degradation curve was obtained by fitting using a 4 Parameter Logistic Model, and the values of Relative DC50 (nM) and Absolute DC50 (nM) were obtained.
(In general: With HiBiT, luminescence reflects the tagged protein that the partner subunit can reach.)

Series [3] relates to LPS induced IL-6 release in human PBMC cells. Kind of series: Inhibition of LPS induced IL-6 release in human PBMC cells (IL-6 HTRF assay). The following applies: 2 h compound pre-incubation, LPS 5 ng/mL for 4 h, IL-6 in supernatant. It is filed as cell-based. On the procedure:
I. Recovery and seeding of PBMC, and treatment of compounds (human PBMC cells were purchased from Oricell, item number: Fpb003F)
• 1. Preparation of compounds Sample dilutions of a series of concentrations were obtained by dilution in DMSO using Bravo, and then 80 nL was transferred into a cell plate using ECHO. The final concentration of DMSO in the cell culture medium is 0.1%. • 2. Frozen cells were quickly thawed in a 37°C water bath and stirred continuously. • 3. 25 mL of fresh preheated culture medium was added into a 50 mL centrifuge tube, and then the cells were added dropwise. Then the cells were centrifuged at 2,000 rpm for 10 min. • 4. […] The total number of cells required was calculated based on cell concentration to perform the assay. 7×10e4 cells were added per well (70 µL). • 6. The cell plate was placed and incubated in a 5% CO2 incubator at 37°C for 2 h.
• 1. LPS: A stock solution (1 mg/mL) was diluted in dH2O, aliquoted, and stored at -80°C. • 2. 8-fold LPS was added per well (10 µl/well) (with a final concentration of 5 ng/mL). The cells were incubated in a 5% CO2 incubator at 37°C for 4 h. • 3. 70 µl of supernatant was collected per well using Bravo, and then IL-6 HTRF assay was performed. The supernatant may be stored at -80°C.
1. Preparation of standards and sample dilutions. 2. 16 µL of each sample was taken using Bravo and added to wells. Then 16 µL of each standard was taken and added to corresponding wells. 3.4 µL of a premixed IL6 antibody working solution was added to each of all wells. 4. The cell plate was sealed and incubated at room temperature for 2 h. 5.
Background: TR-FRET usually uses a lanthanide donor and a delayed reading to cut background.

Setting [4] is: Intragastric administration (5 mg/kg), 5 mg/kg.
Where [5] appears, read: Intravenous injection (1 mg/kg), 1 mg/kg.
[6] abbreviates: 2 h incubation, read-out: Absolute DC50.
Setting [7] is: 2 h incubation, read-out: Relative DC50.
[8] abbreviates: Intragastric administration (5 mg/kg).
Where [9] appears, read: Intravenous injection (1 mg/kg).
[10] abbreviates: 6 h incubation, read-out: Absolute DC50.
Where [11] appears, read: 6 h incubation, read-out: Relative DC50.

Read-outs that look alike come from different tables or passages of the source.

A word on the Cmax: it is the maximum level reached in the sampled fluid or tissue. The Vss is a proportionality between amount in the body and measured concentration, not a real space. The low end stands for confinement near the circulation, the high end for extensive tissue distribution. What is called IC50 is the concentration that inhibits the measured activity by half. High values mean weaker potency in that assay, low ones greater potency in that assay. In series [1] (setting [4]), `CC(C)(O)c1cc2nn([C@H]3CC[C@H](CCN4CCN5c6ccc(C7(C)CCC(=O)NC7=O)cc6OC[C@H]5C4)CC3)cc2cc1NC(=O)c1cccc(C(F)(F)F)n1` (single isomer, unassigned) [Compound 120-b-2] returned an AUClast of 24277 ng·h/mL, a Cmax of 1790 ng/mL, a F% of 98.6% and a T1/2 of 9.45 h. In series [1] (setting [5]), the AUClast came to 4925 ng·h/mL, the CL came to 3.03 mL/min/kg, the Cmax is on record as 725 ng/mL and the Vss is recorded as 1.80 L/kg. This compound yielded a Dmax in series [2] (2 h incubation) of 93%. Also, the DC50 in series [2] (setting [6]) is 23.7 nM. For the same compound, the DC50 in series [2] (setting [7]) came out at 21.4 nM. Also, the 50% inhibitory concentration (IC50) in series [3] was 0.75 nM.

In series [1] (setting [8]), `CC(C)(O)c1cc2nn([C@H]3CC[C@H](CCN4CCN5c6ccc(C7CCC(=O)NC7=O)cc6OC[C@@H]5C4)CC3)cc2cc1NC(=O)c1cccc(C(F)(F)F)n1` (some centres unmarked) [Compound 1-a] came in with an AUClast of 19336 ng·h/mL, a Cmax of 1067 ng/mL, a F% of 31.7% and a T1/2 of 17.5 h. In addition, in series [1] (setting [9]), the AUClast amounted to 8794 ng·h/mL, the CL was found to be 1.25 mL/min/kg, the Cmax worked out at 832 ng/mL and the Vss is listed as 1.64 L/kg. The Dmax in series [2] (2 h incubation) is 90%. The DC50 in series [2] (setting [6]) came out at 0.42 nM. The DC50 in series [2] (setting [7]) turned out to be 0.58 nM. For the same compound, the IC50 in series [3] came out at 0.91 nM.

In series [1] (setting [8]), `CC(C)(O)c1cc2nn([C@H]3CC[C@H](CCN4CCN5c6ccc(C7CCC(=O)NC7=O)cc6OC[C@H]5C4)CC3)cc2cc1NC(=O)c1cccc(C(F)(F)F)n1` (some centres unmarked) [Compound 1-b] yielded an AUClast of 44547 ng·h/mL, a Cmax of 2623 ng/mL, a F% of 79.5% and a T1/2 of 15.3 h. In series [1] (setting [9]), the AUClast turned out to be 11208 ng·h/mL, the CL is 1.0 mL/min/kg, the Cmax is reported as 1083 ng/mL and the Vss is 1.23 L/kg. The compound further yielded a Dmax in series [2] (2 h incubation) of 88%. In series [2] (setting [6]), the DC50 came out at 0.54 nM. In series [2] (setting [7]), the DC50 worked out at 0.71 nM. In addition, inhibition in series [3] was half-maximal at 0.86 nM (IC50).

In series [1] (setting [8]), `CC(C)(O)c1cc2nn([C@H]3CC[C@H](CCN4CCN5c6ccc(C7CCC(=O)NC7=O)cc6OCC5C4)CC3)cc2cc1NC(=O)c1cccc(C(F)(F)F)n1` (some centres unmarked) [Compound 1] gave an AUClast of 82491 ng·h/mL, a Cmax of 5153 ng/mL, a F% of 93.86% and a T1/2 of 8.03 h. In series [1] (setting [9]), this compound registered an AUClast of 12937 ng·h/mL, a CL of 0.905 mL/min/kg, a Cmax of 1740 ng/mL and a Vss of 1.05 L/kg. In series [2] (6 h incubation), this compound yielded a Dmax of 91.1%. Besides, the DC50 in series [2] (read-out: Absolute DC50, 6 h incubation) was determined as 0.61 nM. Further, the DC50 in series [2] (read-out: Relative DC50, 6 h incubation) worked out at 0.46 nM. The compound further displayed an IC50 in series [3] of 1.15 nM.

Take `CC(C)(O)c1cc2nn([C@H]3CC[C@H](CCN4CCC5(CC4)OCc4cc(C6CCC(=O)NC6=O)ccc45)CC3)cc2cc1NC(=O)c1cccc(C(F)(F)F)n1` (some centres unmarked) [Compound 47]: the Dmax in series [2] (6 h incubation) came out at 93%. Besides, the DC50 in series [2] (setting [10]) was 0.65 nM; in series [2] (setting [11]), 0.54 nM. In series [3], this compound gave an IC50 of 0.52 nM.

For `CC(C)Oc1cc2nc([C@H]3CC[C@H](CCN4CCC5(CC4)OCc4cc(C6CCC(=O)NC6=O)ccc45)CC3)cn2cc1C(=O)Nc1cnn2cccnc12` (some centres unmarked) [Compound 94], in series [2] (6 h incubation), the Dmax worked out at 97%. In addition, the DC50 in series [2] (setting [10]) stood at 3.82 nM; in series [2] (setting [11]) it was 3.97 nM. Also, in series [3], the IC50 stood at 64.5 nM.

For `CC(C)Oc1cc2nc([C@H]3CC[C@H](CCN4CCN5c6ccc(C7CCC(=O)NC7=O)cc6OCC5C4)CC3)cn2cc1C(=O)Nc1cnn2cccnc12` (some centres unmarked) [Compound 100], in series [2] (2 h incubation), the Dmax came out at 89%. Further, the DC50 in series [2] (setting [6]) and in series [2] (setting [7]) was 17.6 nM each time. The compound further returned an IC50 in series [3] of 0.64 nM.

`CC(C)(O)c1cc2nn(C3CCC(CCN4CCN5c6c(F)cc(NC7CCC(=O)NC7=O)cc6OCC5C4)CC3)cc2cc1NC(=O)c1cccc(C(F)(F)F)n1` (centres unmarked) [Compound 113] displayed a Dmax in series [2] (2 h incubation) of 89%. Besides, the DC50 in series [2] (setting [6]) amounted to 16.8 nM; in series [2] (setting [7]), 16.1 nM. In series [3], this compound gave an IC50 of 0.19 nM.

For the compound `CN1C(=O)C2(CCN(CC[C@H]3CC[C@H](n4cc5cc(NC(=O)c6cccc(C(F)(F)F)n6)c(C(C)(C)O)cc5n4)CC3)CC2)c2ccc(C3CCC(=O)NC3=O)cc21` (some centres unmarked) [Compound 121], in series [2] (2 h incubation), the Dmax came to 92%. In addition, the DC50 in series [2] (setting [6]) amounted to 14 nM; in series [2] (setting [7]) it was 10.8 nM. Besides, it took 0.1 nM to reach half-maximal inhibition in series [3] (IC50).
